Earlier results, collected in US9795630B2, “Compositions and methods for inducing or enhancing connective tissue repair” (Glenpharma AB, priority 2009, dated 2017).

System: superficial digital flexor tendon injuries
Conditions: horses; Dyson 1977/1997 & 2004

N#CCCN.N#CCCN.O=C(O)/C=C/C(=O)O [BAPN, B-aminoproprionitrile fumarate]
benefit of intralesional treatment (healing, recovery time, tendon repair) compared with controlled exercise alone: failed to show any benefit
